Experimental findings from ChEMBL document CHEMBL1138224, “Design, synthesis, and biological evaluation of peptidomimetic inhibitors of factor XIa as novel anticoagulants” (J Med Chem, 2006) are described below.

One series addresses T1, Coagulation factor VII (Homo sapiens, UniProt P08709).
T1 sequence (P08709 whole entry): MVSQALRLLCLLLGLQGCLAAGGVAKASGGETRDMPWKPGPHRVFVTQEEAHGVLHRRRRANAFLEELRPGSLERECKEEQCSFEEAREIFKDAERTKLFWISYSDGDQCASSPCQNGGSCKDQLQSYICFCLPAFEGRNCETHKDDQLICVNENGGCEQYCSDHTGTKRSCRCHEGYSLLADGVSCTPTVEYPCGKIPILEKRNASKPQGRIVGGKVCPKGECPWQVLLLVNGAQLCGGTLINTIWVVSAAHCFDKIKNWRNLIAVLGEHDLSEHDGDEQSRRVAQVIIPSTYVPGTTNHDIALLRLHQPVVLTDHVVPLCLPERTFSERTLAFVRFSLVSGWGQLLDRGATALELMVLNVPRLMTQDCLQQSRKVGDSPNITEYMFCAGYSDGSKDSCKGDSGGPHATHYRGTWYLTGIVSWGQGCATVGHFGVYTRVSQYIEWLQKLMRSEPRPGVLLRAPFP
The experiment in a line: Inhibition of factor 7a.

A further series has as its target Plasma kallikrein (Homo sapiens, UniProt P03952). The experiment in a line: Inhibition of plasma kallikrein. It is filed as cell-free.
The target of series [1] is Vitamin K-dependent protein C (Homo sapiens, UniProt P04070). The experiment in a line: Inhibition of activated protein C.
Sequence of Vitamin K-dependent protein C (P04070 43-197 limits assumed): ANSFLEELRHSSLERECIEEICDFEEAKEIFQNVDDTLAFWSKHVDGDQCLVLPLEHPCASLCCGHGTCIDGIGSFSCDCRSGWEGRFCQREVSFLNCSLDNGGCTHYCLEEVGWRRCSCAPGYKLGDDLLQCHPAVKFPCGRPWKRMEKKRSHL
Sequence of Vitamin K-dependent protein C (P04070 212-461 limits assumed): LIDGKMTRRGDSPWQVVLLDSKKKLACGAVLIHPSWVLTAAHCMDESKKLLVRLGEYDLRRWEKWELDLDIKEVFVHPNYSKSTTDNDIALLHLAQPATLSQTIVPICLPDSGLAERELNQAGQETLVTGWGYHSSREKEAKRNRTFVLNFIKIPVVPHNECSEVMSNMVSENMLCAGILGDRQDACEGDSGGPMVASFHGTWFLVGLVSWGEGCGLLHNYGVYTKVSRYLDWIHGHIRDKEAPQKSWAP
The nature of series [2]: Half life in iv dosed rat. It is filed as ADME, organism-based. As to conditions: in vivo.
A short description of series [3]: Clearance in iv dosed rat. Conditions: in vivo. The series is classed as ADME, organism-based.
Series [4] can be described thus: Volume of distribution in iv dosed rat. The series is classed as ADME, organism-based. As to conditions: in vivo, read-out: Vdss.
The target of the next series is Coagulation factor XI (Homo sapiens, UniProt P03951). The experiment in a line: Inhibition of factor 11a.
Sequence of Coagulation factor XI (P03951 19-387 limits assumed): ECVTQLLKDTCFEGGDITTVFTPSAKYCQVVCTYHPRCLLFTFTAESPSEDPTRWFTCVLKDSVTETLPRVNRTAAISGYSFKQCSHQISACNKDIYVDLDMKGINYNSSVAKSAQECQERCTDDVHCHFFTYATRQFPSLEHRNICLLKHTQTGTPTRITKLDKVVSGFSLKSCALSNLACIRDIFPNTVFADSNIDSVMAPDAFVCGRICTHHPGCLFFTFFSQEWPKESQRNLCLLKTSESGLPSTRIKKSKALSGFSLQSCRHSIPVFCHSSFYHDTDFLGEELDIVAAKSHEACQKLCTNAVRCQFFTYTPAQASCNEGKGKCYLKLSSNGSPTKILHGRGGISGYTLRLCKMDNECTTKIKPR
Sequence of Coagulation factor XI (P03951 388-625 limits assumed): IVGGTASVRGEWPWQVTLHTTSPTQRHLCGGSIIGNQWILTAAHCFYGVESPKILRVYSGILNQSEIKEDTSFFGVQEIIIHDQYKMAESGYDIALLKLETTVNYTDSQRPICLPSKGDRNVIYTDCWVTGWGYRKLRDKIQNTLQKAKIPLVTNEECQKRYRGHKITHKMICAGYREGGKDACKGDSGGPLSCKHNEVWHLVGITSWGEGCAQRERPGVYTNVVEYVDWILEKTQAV
The target in another series is Coagulation factor X (Homo sapiens, UniProt P00742). Put plainly: Inhibition of factor 10a.
Sequence of Coagulation factor X (P00742 41-179 limits assumed): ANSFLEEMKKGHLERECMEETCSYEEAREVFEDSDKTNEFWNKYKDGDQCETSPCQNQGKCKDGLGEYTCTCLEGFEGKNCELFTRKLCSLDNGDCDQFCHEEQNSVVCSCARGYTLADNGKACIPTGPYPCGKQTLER
Sequence of Coagulation factor X (P00742 235-488 limits assumed): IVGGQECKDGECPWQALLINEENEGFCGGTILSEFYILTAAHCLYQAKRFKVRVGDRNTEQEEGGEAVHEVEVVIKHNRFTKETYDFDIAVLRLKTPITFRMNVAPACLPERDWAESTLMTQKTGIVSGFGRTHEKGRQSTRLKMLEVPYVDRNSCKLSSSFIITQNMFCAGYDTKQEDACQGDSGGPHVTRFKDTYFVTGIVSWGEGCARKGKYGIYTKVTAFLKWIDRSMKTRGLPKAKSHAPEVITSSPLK
The next series has as its target Prothrombin (Homo sapiens, UniProt P00734). The experiment in a line: Inhibition of thrombin.

Sequence of Plasma kallikrein (P03952 20-390 limits assumed): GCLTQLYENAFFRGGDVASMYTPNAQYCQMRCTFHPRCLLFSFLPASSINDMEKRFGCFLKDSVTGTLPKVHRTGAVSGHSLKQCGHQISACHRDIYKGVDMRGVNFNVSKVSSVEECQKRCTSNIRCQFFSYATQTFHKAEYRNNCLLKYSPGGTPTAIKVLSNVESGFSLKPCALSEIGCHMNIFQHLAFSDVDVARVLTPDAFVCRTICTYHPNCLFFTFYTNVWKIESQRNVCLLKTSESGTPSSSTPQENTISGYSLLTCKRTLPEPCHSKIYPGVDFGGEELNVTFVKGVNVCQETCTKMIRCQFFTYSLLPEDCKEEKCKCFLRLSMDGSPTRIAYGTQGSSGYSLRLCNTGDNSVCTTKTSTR
Sequence of Plasma kallikrein (P03952 391-638 limits assumed): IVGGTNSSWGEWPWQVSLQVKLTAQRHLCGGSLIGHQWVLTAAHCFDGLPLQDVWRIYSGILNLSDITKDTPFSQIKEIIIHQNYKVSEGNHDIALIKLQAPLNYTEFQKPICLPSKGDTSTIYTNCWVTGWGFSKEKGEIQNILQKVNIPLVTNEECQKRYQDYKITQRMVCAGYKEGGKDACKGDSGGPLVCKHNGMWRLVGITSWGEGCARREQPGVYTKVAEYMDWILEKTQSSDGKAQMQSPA

As a reminder, the IC50 is the concentration at which inhibition is half-maximal. In general, half-life refers to the time in which the quantity being followed falls by half. A word on the clearance: it is the rate of elimination divided by the concentration. On to `CC(C)[C@H](NC(=O)[C@H](Cc1ccc(O)cc1)NC(=O)N[C@H](C)c1ccc(Br)cc1)C(=O)N[C@@H](CCCN=C(N)N)C(=O)c1nccs1`, for which the half-inhibitory concentration (IC50) on Coagulation factor VII was 38 µM; against Plasma kallikrein, 0.01 µM; in series [1], 20.7 µM; at Coagulation factor XI it was 0.006 µM; on Coagulation factor X, 1.6 µM; against Prothrombin, 2.04 µM. In series [2], this compound gave a half-life of 45 min. The compound also returned a clearance in [3] of 32 mL/min/kg. In addition, the Vd in series [4] is 0.236 L/kg.
